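Cultured in 96-well plates, cells were exposed to test compound for 48 hours across five concentrations. TGI: concentration producing complete growth inhibition.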
System: LXFL 529 NSCLC
Test: growth of human tumour cells (NCI), 48 h

SMILES | TGI
Cc1cccc2c1Sc1ccccc1C2NC(=O)CN(C)C (configuration not stated) | > 100 µM
Nc1ccc(Cn2ccc3c4c(N)nc(N)nc4ccc32)cc1 | 15.7 µM
